In patent US9302991B2, “Arylamide derivatives as TTX-S blockers” (RaQualia Pharma Inc., priority 2010, dated 2016):
pIC50: −log10 of the molar value.

Experiments:
human Nav1.3 channels = biological target: T1, human Nav1.3 channels (Homo sapiens, UniProt Q9NY46); assay: FRET assay, human Nav1.3 (EFS on FDSS); assay type: cell-based; conditions: HEK293 cells expressing human Nav1.3, read-out: IC50 against Nav1.3
T1 construct: expressed in transfected cells; host or cells: HEK293
Protocol: The inhibitory activities of compounds against voltage gated sodium channels are determined by methodology well known in the art.
The ability of the aryl substituted carboxamide derivatives of the formula (I) to inhibit the NaV1.3, Nav1.7 and Nav1.5 channels is measured by Fluorescence Resonance Energy Transfer (FRET) assay and electrophysiology assay described below.
This screen is used to determine the effects of compounds on human Nav1.3, human Nav1.7, and human Nav1.5 channels, utilising electrical field stimulation (EFS) system in 96-well plate format on FDSS (Hamamatsu Photonics) platform. The change of membrane potential is monitored with FRET dye pair, oxonol (DiSBAC2(3)) and coumarin (CC2-DMPE).
Each HEK293 cells expressing human Nav1.3 channels and HEK293 cells expressing human Nav1.5 channels are grown in T225 flasks, in a 5% CO2 humidified incubator to about 80% confluence. Media composition consists of Dulbecco's Modified Eagle Medium (high glucose), 10% FCS, 100 units/mL Penicillin, 100 microgram/mL Streptomycin and 500 microgram/mL Geneticine.
Protocol: • Seed each cell lines (1×10^5 cells/well) into poly-D-lysine coated 96-well plates prior to experimentation. • Incubate at 37° C. in 5% CO2 for 24 hours. • Wash each well with assay buffer (140 mM NaCl, 4.5 mM KCl, 10 mM D-Glucose, 2 mM CaCl2, 1 mM MgCl2, 10 mM HEPES, pH 7.4 adjusted with NaOH) twice. • Add 1st loading solution containing 10 microM CC2-DMPE and 0.06% Pluronic F-127 in assay buffer. • Incubate the plate at room temperature in dark for 1 hour. • Remove 1st loading solution and added 2nd loading solution containing 15 microM DiSBAC2(3), 0.555 mM VABSC-1 and 0.004% Pluronic F-127 in assay buffer. • Place the plate under the dark at room temperature for 25 minutes. • Add compound solutions into the assay plate. • Set the assay plate in FDSS and placed an EFS device on the plate. • Measure EFS-induced fluorescent response by FDSS.
The data are analyzed and reported as normalized ratios of intensities measured at […]. The process of calculating these ratios is performed as follows:
This analysis is performed using a computerized specific program designed for FDSS generated data. Fluorescence ratio values are plotted using XLfit to determine an IC50 value for each compound.

human Nav1.7 channels = biological target: T2, human Nav1.7 channels (Homo sapiens, UniProt Q15858); assay: FRET assay, human Nav1.7 (EFS on FDSS); assay type: cell-based; conditions: CHO cells expressing human Nav1.7, read-out: IC50 against Nav1.7
T2 construct: expressed in transfected cells; host or cells: CHO
T2 sequence (Q15858 whole entry): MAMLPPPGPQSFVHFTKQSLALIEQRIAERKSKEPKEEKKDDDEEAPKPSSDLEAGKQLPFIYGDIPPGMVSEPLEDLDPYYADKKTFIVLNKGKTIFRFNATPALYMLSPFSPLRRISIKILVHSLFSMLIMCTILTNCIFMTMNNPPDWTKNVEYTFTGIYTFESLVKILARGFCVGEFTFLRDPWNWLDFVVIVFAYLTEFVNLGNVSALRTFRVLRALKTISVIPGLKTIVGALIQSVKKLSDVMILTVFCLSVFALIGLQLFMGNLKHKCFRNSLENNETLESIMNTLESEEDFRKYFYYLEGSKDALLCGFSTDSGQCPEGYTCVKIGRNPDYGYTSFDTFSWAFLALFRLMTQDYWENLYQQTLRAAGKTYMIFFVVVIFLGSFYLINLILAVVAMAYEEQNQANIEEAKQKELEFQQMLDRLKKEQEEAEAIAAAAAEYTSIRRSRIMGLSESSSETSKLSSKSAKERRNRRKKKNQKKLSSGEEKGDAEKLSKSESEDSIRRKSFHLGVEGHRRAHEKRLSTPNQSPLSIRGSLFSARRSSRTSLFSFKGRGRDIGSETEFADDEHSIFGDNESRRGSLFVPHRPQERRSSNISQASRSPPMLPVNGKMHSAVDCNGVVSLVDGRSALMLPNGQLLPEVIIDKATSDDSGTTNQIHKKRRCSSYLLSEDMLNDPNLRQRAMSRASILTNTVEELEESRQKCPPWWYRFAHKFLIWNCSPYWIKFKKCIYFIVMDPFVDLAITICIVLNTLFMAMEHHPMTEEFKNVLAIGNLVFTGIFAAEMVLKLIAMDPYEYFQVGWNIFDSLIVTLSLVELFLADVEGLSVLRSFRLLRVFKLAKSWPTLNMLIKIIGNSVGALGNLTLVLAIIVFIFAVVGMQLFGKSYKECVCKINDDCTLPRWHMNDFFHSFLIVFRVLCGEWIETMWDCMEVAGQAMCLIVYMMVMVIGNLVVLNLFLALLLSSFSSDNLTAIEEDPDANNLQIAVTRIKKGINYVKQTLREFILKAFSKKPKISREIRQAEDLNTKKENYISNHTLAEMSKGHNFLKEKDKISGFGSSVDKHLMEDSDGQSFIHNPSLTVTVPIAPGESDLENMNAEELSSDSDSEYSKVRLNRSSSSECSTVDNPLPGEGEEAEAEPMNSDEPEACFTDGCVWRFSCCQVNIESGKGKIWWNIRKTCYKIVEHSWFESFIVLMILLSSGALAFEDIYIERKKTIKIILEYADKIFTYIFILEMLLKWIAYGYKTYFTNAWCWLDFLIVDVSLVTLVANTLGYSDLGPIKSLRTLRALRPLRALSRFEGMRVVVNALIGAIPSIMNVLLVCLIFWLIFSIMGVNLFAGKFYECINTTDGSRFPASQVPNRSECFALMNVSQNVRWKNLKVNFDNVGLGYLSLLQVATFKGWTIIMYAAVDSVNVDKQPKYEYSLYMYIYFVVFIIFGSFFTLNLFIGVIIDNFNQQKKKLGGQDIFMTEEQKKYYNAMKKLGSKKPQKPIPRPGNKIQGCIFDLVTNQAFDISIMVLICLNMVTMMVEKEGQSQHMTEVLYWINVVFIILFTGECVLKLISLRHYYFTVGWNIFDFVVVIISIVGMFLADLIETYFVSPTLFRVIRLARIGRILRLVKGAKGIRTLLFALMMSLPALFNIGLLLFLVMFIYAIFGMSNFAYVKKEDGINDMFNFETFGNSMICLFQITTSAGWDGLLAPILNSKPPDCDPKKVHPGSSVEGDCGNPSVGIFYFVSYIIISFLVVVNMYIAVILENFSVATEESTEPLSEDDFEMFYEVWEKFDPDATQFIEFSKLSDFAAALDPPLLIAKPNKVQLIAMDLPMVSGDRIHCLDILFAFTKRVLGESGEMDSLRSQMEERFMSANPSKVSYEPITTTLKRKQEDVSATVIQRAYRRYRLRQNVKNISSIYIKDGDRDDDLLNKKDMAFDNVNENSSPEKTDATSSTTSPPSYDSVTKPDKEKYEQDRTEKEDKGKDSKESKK
How it was run: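 IC50 was derived from normalized 440 nm fluorescence ratios of the EFS-evoked membrane-potential response read on FDSS. Recombinant CHO cells were sequentially dye-loaded with coumarin/oxonol FRET pair at room temperature in pH 7.4 buffer before compound addition.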

T1 sequence (Q9NY46 whole entry): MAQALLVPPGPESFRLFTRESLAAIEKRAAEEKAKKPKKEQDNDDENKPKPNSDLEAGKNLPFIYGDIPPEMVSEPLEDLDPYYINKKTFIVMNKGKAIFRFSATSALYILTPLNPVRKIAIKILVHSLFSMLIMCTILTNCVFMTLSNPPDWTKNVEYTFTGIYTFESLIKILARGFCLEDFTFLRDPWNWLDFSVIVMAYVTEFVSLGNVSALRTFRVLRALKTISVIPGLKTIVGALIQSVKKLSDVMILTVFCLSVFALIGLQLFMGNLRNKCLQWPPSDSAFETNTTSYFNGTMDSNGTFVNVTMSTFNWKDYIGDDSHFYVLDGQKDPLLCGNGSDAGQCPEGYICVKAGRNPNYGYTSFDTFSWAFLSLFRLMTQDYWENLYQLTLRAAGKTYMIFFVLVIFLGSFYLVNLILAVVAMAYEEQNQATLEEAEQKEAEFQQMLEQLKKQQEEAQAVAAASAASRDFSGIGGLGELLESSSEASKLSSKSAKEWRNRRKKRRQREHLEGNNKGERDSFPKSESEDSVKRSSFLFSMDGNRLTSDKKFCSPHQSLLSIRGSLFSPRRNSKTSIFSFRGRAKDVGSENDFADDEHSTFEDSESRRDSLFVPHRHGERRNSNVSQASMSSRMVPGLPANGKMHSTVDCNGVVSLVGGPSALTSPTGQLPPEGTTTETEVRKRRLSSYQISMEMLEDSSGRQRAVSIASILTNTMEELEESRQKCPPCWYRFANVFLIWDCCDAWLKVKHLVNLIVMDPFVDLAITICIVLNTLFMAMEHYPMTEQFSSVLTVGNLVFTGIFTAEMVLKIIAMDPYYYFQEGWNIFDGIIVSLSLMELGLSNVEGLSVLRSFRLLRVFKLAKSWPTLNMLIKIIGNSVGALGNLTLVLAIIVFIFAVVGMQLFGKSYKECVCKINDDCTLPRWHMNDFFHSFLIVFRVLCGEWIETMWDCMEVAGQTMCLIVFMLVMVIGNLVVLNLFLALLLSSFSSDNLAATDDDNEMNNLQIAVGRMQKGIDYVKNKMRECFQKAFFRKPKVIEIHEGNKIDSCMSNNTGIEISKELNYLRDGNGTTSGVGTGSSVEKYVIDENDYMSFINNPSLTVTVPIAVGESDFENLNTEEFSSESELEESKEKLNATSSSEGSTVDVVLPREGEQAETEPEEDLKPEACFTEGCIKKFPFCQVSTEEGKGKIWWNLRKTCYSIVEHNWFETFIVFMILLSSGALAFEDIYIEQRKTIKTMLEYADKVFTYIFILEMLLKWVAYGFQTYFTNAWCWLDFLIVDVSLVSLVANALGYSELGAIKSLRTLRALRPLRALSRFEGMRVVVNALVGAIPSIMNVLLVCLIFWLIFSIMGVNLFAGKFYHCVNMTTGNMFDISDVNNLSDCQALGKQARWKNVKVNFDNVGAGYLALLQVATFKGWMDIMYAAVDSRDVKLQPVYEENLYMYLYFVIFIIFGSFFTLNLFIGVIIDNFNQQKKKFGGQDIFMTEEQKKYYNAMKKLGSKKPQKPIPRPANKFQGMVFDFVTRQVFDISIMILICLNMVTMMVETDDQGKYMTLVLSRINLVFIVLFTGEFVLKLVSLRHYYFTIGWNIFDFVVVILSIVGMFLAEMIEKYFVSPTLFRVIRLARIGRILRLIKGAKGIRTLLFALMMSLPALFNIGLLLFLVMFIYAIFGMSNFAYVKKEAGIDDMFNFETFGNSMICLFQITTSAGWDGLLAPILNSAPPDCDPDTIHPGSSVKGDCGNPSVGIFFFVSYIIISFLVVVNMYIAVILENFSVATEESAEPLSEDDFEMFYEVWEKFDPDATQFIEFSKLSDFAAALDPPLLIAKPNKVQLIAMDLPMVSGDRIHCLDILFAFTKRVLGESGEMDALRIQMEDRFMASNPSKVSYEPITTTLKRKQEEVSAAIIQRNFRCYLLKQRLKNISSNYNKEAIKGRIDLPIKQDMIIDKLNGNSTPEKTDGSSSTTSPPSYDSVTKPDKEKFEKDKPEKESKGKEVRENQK

pIC50 (human Nav1.3 channels)	pIC50 (human Nav1.7 channels)	SMILES
> 6.00	–	Cc1cc(C(=O)NCc2cccc(OCC(F)(F)F)n2)cc(NC(=O)C(C)C)n1 [Example 496, 2-isobutyramido-6-methyl-N-((6-(2,2,2-trifluoroethoxy)pyridin-2-yl)methyl)isonicotinamide]
> 6.00	–	CC(=O)Nc1cc(C(=O)NCc2cnc(OCC(F)(F)F)c(C(F)(F)F)c2)cc(C)n1 [Example 727, 2-acetamido-6-methyl-N-((6-(2,2,2-trifluoroethoxy)-5-(trifluoromethyl)pyridin-3-yl)methyl)isonicotinamide]
> 6.00	–	CCC(=O)Nc1cc(C(=O)NCc2ccc(F)c(OC(F)(F)F)c2)cc(C)n1 [Example 591, N-(4-fluoro-3-(trifluoromethoxy)benzyl)-2-methyl-6-propionamidoisonicotinamide]
> 6.00	–	CCC(=O)Nc1cc(C(=O)NCc2ccc(OCC(C)(F)F)nc2)cc(C)n1 [Example 721, N-((6-(2,2-difluoropropoxy)pyridin-3-yl)methyl)-2-methyl-6-propionamidoisonicotinamide]
> 6.00	–	CCC(=O)Nc1cc(C(=O)NC(C)c2ccc(OCC(F)(F)C(F)(F)F)nc2)cc(C)n1 (single isomer, unassigned) [Example 692, 2-methyl-N-(1-(6-(2,2,3,3,3-pentafluoropropoxy)pyridin-3-yl)ethyl)-6-propionamidoisonicotinamide]
> 6.00	–	CCc1cc(CNC(=O)c2cc(C)nc(NC(=O)C3CC3)n2)cnc1OCC(F)(F)F [Example 718, 2-(cyclopropanecarboxamido)-N-((5-ethyl-6-(2,2,2-trifluoroethoxy)pyridin-3-yl)methyl)-6-methylpyrimidine-4-carboxamide]
> 6.00	–	CCC(=O)Nc1cc(C(=O)NCc2cc(OC(F)(F)F)ccc2F)cc(C)n1 [Example 609, N-(2-fluoro-5-(trifluoromethoxy)benzyl)-2-methyl-6-propionamidoisonicotinamide]
> 6.00	–	CCC(=O)Nc1cc(C(=O)NCc2cc(OC(F)(F)F)ccc2F)ccn1 [Example 607, N-(2-fluoro-5-(trifluoromethoxy)benzyl)-2-propionamidoisonicotinamide]
> 6.00	–	Cc1cc(C(=O)NCc2cnc(OCC(F)(F)F)c(Cl)c2)cc(NC(=O)CC2CC2)n1 [Example 956, N-((5-chloro-6-(2,2,2-trifluoroethoxy)pyridin-3-yl)methyl)-2-(2-cyclopropylacetamido)-6-methylisonicotinamide]
> 6.00	–	CCC(=O)Nc1cc(C(=O)NCc2cnc(OCC(F)(F)F)c(CC)c2)cc(C)n1 [Example 714, N-((5-ethyl-6-(2,2,2-trifluoroethoxy)pyridin-3-yl)methyl)-2-methyl-6-propionamidoisonicotinamide]
> 6.00	–	O=C(NCc1cccc(OC(F)(F)F)c1F)c1ccnc(NC(=O)C2CC2)c1 [Example 748, 2-(cyclopropanecarboxamido)-N-(2-fluoro-3-(trifluoromethoxy)benzyl)isonicotinamide]
–	> 6.00	CC(=O)Nc1cc(C(=O)NC(C)c2cnc(OCC(F)(F)F)c(C)c2)cc(C)n1 (single isomer, unassigned) [Example 379, 2-acetamido-6-methyl-N-(1-(5-methyl-6-(2,2,2-trifluoroethoxy)pyridin-3-yl)ethyl)isonicotinamide]
–	> 6.00	CC(NC(=O)c1ccnc(NC(=O)C2CC2)n1)c1cnc(OCC(F)(F)F)c(Cl)c1 (single isomer, unassigned) [Example 211, N-(1-(5-chloro-6-(2,2,2-trifluoroethoxy)pyridin-3-yl)ethyl)-2-(cyclopropanecarboxamido)pyrimidine-4-carboxamide]
–	> 6.00	Cc1cc(C(C)NC(=O)c2ccnc(NC(=O)C(C)C)c2)cc(Cl)c1OCC(F)F (single isomer, unassigned) [Example 1210, N-(1-(3-chloro-4-(2,2-difluoroethoxy)-5-methylphenyl)ethyl)-2-isobutyramidoisonicotinamide]
–	> 6.00	Cc1cc(C(=O)NCc2cccc(C(F)(F)F)c2C)cc(NC(=O)C(C)C)n1 [Example 879, 2-isobutyramido-6-methyl-N-(2-methyl-3-(trifluoromethyl)benzyl)isonicotinamide]
–	> 6.00	CC(=O)Nc1cc(C(=O)NC(C)c2ccc(OCC(C)(F)F)nc2)cc(C)n1 (single isomer, unassigned) [Example 783, 2-acetamido-N-(1-(6-(2,2-difluoropropoxy)pyridin-3-yl)ethyl)-6-methylisonicotinamide]
–	> 6.00	COc1cc(C(C)NC(=O)c2ccnc(NC(=O)C3CC3)n2)cnc1OCC(F)(F)F (single isomer, unassigned) [Example 400, 2-(cyclopropanecarboxamido)-N-(1-(5-methoxy-6-(2,2,2-trifluoroethoxy)pyridin-3-yl)ethyl)pyrimidine-4-carboxamide]
–	> 6.00	COc1cc(CNC(=O)c2cc(C)nc(NC(=O)C(C)C)c2)ccc1OCC(F)(F)F [Example 885, 2-isobutyramido-N-(3-methoxy-4-(2,2,2-trifluoroethoxy)benzyl)-6-methylisonicotinamide]
–	> 6.00	CC(=O)Nc1cc(C(=O)NCc2cc(F)c(OCC(F)(F)F)nc2C)cc(C)n1 [Example 312, 2-acetamido-N-((5-fluoro-2-methyl-6-(2,2,2-trifluoroethoxy)pyridin-3-yl)methyl)-6-methylisonicotinamide]
–	> 6.00	COc1cc(CNC(=O)c2ccnc(NC(=O)C3CC3)c2)ccc1OCC(F)(F)F [Example 1102, 2-(cyclopropanecarboxamido)-N-(3-methoxy-4-(2,2,2-trifluoroethoxy)benzyl)isonicotinamide]
–	> 6.00	CC(C)C(=O)Nc1cc(C(=O)NCc2ccc(O[C@H](C)C(F)(F)F)nc2)ccn1 (single isomer, unassigned) [Example 319]
–	> 6.00	CC(=O)Nc1cc(C(=O)NC(C)c2cc(C(F)(F)F)ccc2F)cc(C)n1 (single isomer, unassigned) [Example 981, 2-acetamido-N-(1-(2-fluoro-5-(trifluoromethyl)phenyl)ethyl)-6-methyl-isonicotinamide]
–	> 6.00	CCOc1nc(OCC(F)(F)F)ccc1CNC(=O)c1cc(C)nc(NC(C)=O)c1 [Example 336, 2-acetamido-N-((2-ethoxy-6-(2,2,2-trifluoroethoxy)pyridin-3-yl)methyl)-6-methylisonicotinamide]
–	> 6.00	Cc1cc(C(=O)NCc2cnc(OCC(F)F)c(Cl)c2)cc(NC(=O)C(C)C)n1 [Example 620, N-((5-chloro-6-(2,2-difluoroethoxy)pyridin-3-yl)methyl)-2-isobutyramido-6-methylisonicotinamide]
–	> 6.00	Cc1cc(C(=O)NCc2cccc(OCC(F)F)c2C)cc(NC(=O)C(C)C)n1 [Example 1131, N-(3-(2,2-difluoroethoxy)-2-methylbenzyl)-2-isobutyramido-6-methylisonicotinamide]
–	> 6.00	CC(=O)Nc1cc(C(=O)NCc2ccc(OCC(F)F)c(C)c2)ccn1 [Example 988, 2-acetamido-N-(4-(2,2-difluoroethoxy)-3-methylbenzyl)isonicotinamide]
–	> 6.00	CC(=O)Nc1cc(C(=O)NCc2ccc(OCC(F)(F)F)nc2N2CCOCC2)ccn1 [Example 281, 2-acetamido-N-((2-morpholino-6-(2,2,2-trifluoroethoxy)pyridin-3-yl)methyl)isonicotinamide]
–	> 6.00	Cc1cc(C(=O)NC(C)c2ccc(OCC(C)(F)F)nc2)cc(NC(=O)C2CC2)n1 (single isomer, unassigned) [Example 1064]
–	> 6.00	CCC(=O)Nc1cc(C(=O)NC(C)c2ccc(OCCC(F)(F)F)nc2)cc(C)n1 (single isomer, unassigned) [Example 140, 2-methyl-6-propionamido-N-(1-(6-(3,3,3-trifluoropropoxy)pyridin-3-yl)ethyl)isonicotinamide]
–	> 6.00	Cc1cc(CNC(=O)c2ccnc(NC(=O)C3CC3)c2)ccc1OCC(F)F [Example 990, 2-(cyclopropanecarboxamido)-N-(4-(2,2-difluoroethoxy)-3-methylbenzyl)isonicotinamide]
